Four substances from US7476729B2, “Dbait and uses thereof” (Institut Curie, priority 2003, dated 2009) can be followed below.

One data set addresses T1, Ku complex (Homo sapiens, UniProt P12956+P13010).
T1 construct: in the presence of nuclear protein extracts from Hep2 cells according to standard protocol; endogenous in cells; host or cells: Hep2 cells (nuclear protein extract)
As to the kind of experiment: Band-shift assay with Hep2 nuclear protein extracts. In kind it is binding. To be noted: for binding of Ku: Hep2 nuclear extract, band-shift; for retarded bands in band-shift assay: 10 nM 32P radio-labelled Dbait, 0-320 ng/μL Hep2 nuclear proteins, 30° C., 10 minutes. The procedure:
As the first step to dissect the mechanism of action of Dbait molecules, a series of band-shift assays were carried out with different ^32P radio-labelled Dbait molecules in the presence of nuclear protein extracts from Hep2 cells according to standard protocol. Typically, 10 nM ^32P radio-labelled Dbait molecules were incubated in the presence of various concentrations of nuclear proteins (0, 10, 20, 40, 80, 160, and 320 ng/μL) at 30° C. for 10 minutes in TBE buffer. Then the samples were loaded on a 5% acrylamide native gel. The electrophoresis was run at 95V for 2 hours at 4° C. The gel was dried and scanned by phosphorimager (Molecular Dynamics).
For 32-bp Dbait molecules, the intensity of the retarded band 1 increases and then decreases as the concentration of protein increases, while the intensity of the retarded band 2 increases as a function of the concentration of nuclear protein extracts.
It is likely that band 1 has one Ku70/80 complex bound to the 16 to 32-bp Dbait, whereas the band 2 has two Ku70/80 complexes bound to the 32-bp Dbait molecules. Control experiments performed with purified Ku proteins confirmed this interpretation.

Data set [1] concerns radiation-enhanced illegitimate integration of a plasmid in Hela cells. As to the kind of experiment: Inhibition of radiation-enhanced illegitimate integration of exogenous DNA. Type of data set: cell-based, human. To be noted: for radiation-enhanced illegitimate integration of plasmid (puromycin resistance): 2 μg Dbait, fractionated 4×0.5 Gy irradiation. The procedure:
Exponentially growing cells in six-well plates were harvested and incubated with […] of complete DMEM containing a mixture of Dbait molecules and Superfect reagent (Qiagen, Courtaboeuf, France) in a ratio of 10 μl Superfect per μg DNA. After 5 h at 37° C. under standard conditions, the cells were washed with PBS and complete DMEM was added. Where indicated, cells were exposed to irradiation either in one session (10 Gy) 5 h after the beginning of transfection or in four sessions of 0.5 Gy administered with a ^137Cs unit (1 Gy/min) 3, 4, 5 and 6 h after the beginning of transfection and allowed to grow for two weeks. When plasmid integration was measured, 2 μg of plasmid was added to Dbait transfection and puromycin (1.7 μg/ml) was added to the growth medium 48 h after transfection. Plasmid transfection efficiency was estimated by analyzing 10,000 cells for GFP expression on a FACScan flow cytometer (FACSalibur, Beckton-Dickinson, USA).
Ionizing radiation is known to improve illegitimate integration of exogenous DNA, a process termed radiation-enhanced integration. Hela cell culture was used for this assay. Cells were transfected during 8 hours by 2 μg of a linear plasmid carrying the gene coding for neomycin resistance, and three different ratio of DNA/superfect (1:2, 1:5, 1:10). During transfection time, the cells were exposed to different irradiation protocols: no irradiation, one single irradiation of 1 Gy and 2 Gy, as well as a 2 Gy irradiation delivered by fractionated doses of 0.5 Gy every 2 hours (4×0.5 Gy). The integration of the plasmid was monitored by selection of Neo^R cells growing in a medium containing 0.6 mg/ml of G418. […] When 2 μg of Dbait32H (SEQ ID NO: 1) molecules were added to the transfection mix, the radiation-enhanced integration was abolished (FIG. 2.3).
Wortmann (Wort) and NU7026 (NU) which are known inhibitors of PI3K (including DNA-PK) were used as control.

A further data set has as its system GMA32 cells. Briefly: FACS analysis of sub-G1 cells (cell death) in GMA32 cells. In kind it is cell-based, Chinese hamster. To be noted: GMA32, 4.5 μg Dbait with lipofectamine, no irradiation or mitotic inhibitor. The procedure:
The GMA32 Chinese hamster fibroblast cells permissive of DNA breaks were maintained in MEM medium (Gibco) supplemented with 1 mM sodium pyruvate, 2 mM glutamine, 1×MEM non essential amino acids, 1× penicillin/streptomycin and 10% horse serum. Typically, 2×10^5 to 4×10^5 cells were seeded in medium without antibiotics, in 5 cm diameter Petri dishes 24 hours before the transfection of different Dbait molecules (4.5 μg) with lipofectamine 2000 (LifeTechnologies) as transfection agent (in a 1:3 ratio), according to the manufacturer's instructions. At the end of the transfection the cells were either irradiated (4 Gy) or treated with mitotic inhibitors: nocodazole (200 nM), navelbine (100 nM) or taxol (200 nM).
About 16 hour later the drug was removed and the cells were allowed to recover. Cell irradiation was performed with γ-rays from a ^137Cs source. After a 24 hours recovery, the cells were collected and used either for FACS, western blot analyses or to determine the clonogenicity (survival) and the effect of each treatment.
The M1 phase represents the percentage of cells in sub-G1 stage indicative of cell death.
The experiments were performed with a FACS calibur flow cytometer (Becton Dickinson). Cells were collected, suspended in 1 ml of cold GM buffer (6.5 mM glucose, 137 mM NaCl, 5.4 mM KCl, 2 mM Na2HPO4, 1 mM KHPO4, 0.5 mM EDTA), and stored at 4° C. for at least 2 hours after addition of 3 ml of cold 100% ethanol.
At that stage, cells were eventually washed with 1×PBS, then stained for 30 minutes at room temperature in PI solution (50 μg/ml propidium iodide, 25 μg/ml RNase A in 1×PBS buffer). 10,000 events were analyzed with Cellquest software, and cell aggregates were gated out. The percentage of cells with a sub-G1 content of DNA was scored.
(A flow cytometer gives signals particle by particle.)

Data set [2] concerns p53 serine 15 phosphorylation in GMA32 cells. Briefly: Western blot of p53 serine 15 phosphorylation in GMA32 cells. In kind it is cell-based, Chinese hamster. To be noted: GMA32, Dbait with lipofectamine, no irradiation or mitotic inhibitor. The procedure: Further experiment was carried out in order to look for evidence of DNA damage signaling. The protein p53 is a well known major protein in mediating DNA damage signaling and in coordinating appropriate responses (DNA repair, apoptosis, etc.) by changing its phosphorylation status. In particular, the phosphorylation of serine 15 residue is involved in the interaction with MDM2 protein which acts as a feed back control Thus, the phosphorylation status of the serine 15 of p53 was assessed by Western blot.
For Western blot analysis, cells were lysed in Laemmli buffer. Equal amounts of lysates were resolved in 12% polyacrylamide gels. Proteins were transferred to nitrocellulose membranes, which were blocked with 5% nonfat milk (1 hour) before overnight incubation with anti-p53Ser15 antibody (9284, Cell Signaling) diluted 500 folds in TBST buffer (10 mM Tris-HCl pH7.5, 150 mM NaCl, 0.1% Tween 20) containing 5% nonfat milk. Blots were then incubated with horseradish peroxidase-conjugated goat anti-rabbit IgG secondary antibodies (P0448, Dako) diluted 1/5000 in TBST. Protein-antibody complexes were detected by enhanced chemiluminescence (RPN2106 ECL, Amersham).

T1 sequence (P12956 whole entry): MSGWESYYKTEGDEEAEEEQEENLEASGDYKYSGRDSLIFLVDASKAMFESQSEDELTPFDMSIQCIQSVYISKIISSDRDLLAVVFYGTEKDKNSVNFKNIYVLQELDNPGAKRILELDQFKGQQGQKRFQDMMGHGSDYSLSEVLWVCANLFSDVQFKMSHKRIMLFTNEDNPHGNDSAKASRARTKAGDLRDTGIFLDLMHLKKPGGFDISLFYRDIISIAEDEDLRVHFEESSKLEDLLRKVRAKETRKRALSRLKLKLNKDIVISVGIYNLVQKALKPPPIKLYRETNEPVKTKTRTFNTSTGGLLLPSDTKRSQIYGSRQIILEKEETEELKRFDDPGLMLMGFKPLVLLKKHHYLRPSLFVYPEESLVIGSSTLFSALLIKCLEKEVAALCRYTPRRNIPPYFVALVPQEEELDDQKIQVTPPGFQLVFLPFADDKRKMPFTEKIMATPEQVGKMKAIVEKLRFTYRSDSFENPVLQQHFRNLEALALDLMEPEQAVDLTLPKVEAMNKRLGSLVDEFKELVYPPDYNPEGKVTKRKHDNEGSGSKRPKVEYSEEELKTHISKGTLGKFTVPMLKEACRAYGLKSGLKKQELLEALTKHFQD
T1 sequence (P13010 whole entry): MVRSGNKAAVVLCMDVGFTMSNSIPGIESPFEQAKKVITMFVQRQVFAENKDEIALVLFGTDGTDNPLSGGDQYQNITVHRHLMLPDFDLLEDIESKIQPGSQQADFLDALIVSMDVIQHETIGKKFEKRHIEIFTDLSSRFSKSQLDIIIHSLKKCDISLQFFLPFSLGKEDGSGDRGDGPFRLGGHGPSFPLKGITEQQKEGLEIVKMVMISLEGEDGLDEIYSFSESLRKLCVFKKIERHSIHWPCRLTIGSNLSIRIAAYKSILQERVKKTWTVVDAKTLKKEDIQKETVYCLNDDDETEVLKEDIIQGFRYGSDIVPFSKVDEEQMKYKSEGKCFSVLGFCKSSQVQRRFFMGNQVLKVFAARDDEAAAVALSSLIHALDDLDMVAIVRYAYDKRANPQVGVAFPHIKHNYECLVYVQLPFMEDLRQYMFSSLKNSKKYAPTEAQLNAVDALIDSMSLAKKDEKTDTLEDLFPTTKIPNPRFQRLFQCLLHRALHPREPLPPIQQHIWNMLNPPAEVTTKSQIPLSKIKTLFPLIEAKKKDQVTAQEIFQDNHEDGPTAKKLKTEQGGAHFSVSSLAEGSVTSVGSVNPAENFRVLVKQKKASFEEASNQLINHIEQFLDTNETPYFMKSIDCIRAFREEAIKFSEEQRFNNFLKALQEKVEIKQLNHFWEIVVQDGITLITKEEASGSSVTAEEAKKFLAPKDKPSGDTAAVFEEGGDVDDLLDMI

As to “Dbait8H: hairpin double strand DNA with a stem of 8-bp (DNA ACGCACGG; DNA, backbone not given here; hairpin, hexaethyleneglycol loop, 3-bp phosphorothioate at free blunt end)”, the “binding of Ku” value with Ku complex is reported as “dID NO:t bind Ku”. Further, the “radiation-enhanced illegitimate integration of plasmid (puromycin resistance)” value in data set [1] was “not effective”. Further, the “cell death (cells in sub-G1 stage)” value in the data set on GMA32 cells is reported as “failed to trigger cell death”. The “phosphorylation of p53 serine 15” value in data set [2] is given as “Neither the shortest Dbait8H (SEQ ID NO: 4) nor single strand Dbaut32ss (SEQ ID NO: 1) molecules were able to induced significant phosphorylation”.
Consider “Dbait16H: hairpin double strand DNA with a stem of 16-bp (DNA ACGCACGGGTGTTGGG; DNA, backbone not given here; hairpin DNA with hexaethyleneglycol loop, 3-bp phosphorothioate at free blunt end)”, for which, in the data set with Ku complex, the “retarded bands in band-shift assay” value is “One retarded band” and the “binding of Ku” value is reported as “bound only one Ku dimer”. The “radiation-enhanced illegitimate integration of plasmid (puromycin resistance)” value in data set [1] is recorded as “not effective”. Further, in the data set on GMA32 cells, the “cell death (cells in sub-G1 stage)” value was “intermediate”. Further, the “phosphorylation of p53 serine 15” value in data set [2] is given as “moderate phosphorylation”.
Take “Dbait32H: hairpin double strand DNA with a stem of 32-bp, hexaethyleneglycol linker, phosphorothioate at the free blunt end (DNA ACGCACGGGTGTTGGGTCGTTTGTTCGGATCT; DNA, backbone not given here; hairpin, hexaethyleneglycol loop, 3-bp phosphorothioate at free blunt end)”: the “retarded bands in band-shift assay” value with Ku complex is “two retarded band”. Also, in data set [1], the “radiation-enhanced illegitimate integration of plasmid (puromycin resistance)” value is “capable of inhibiting”. In addition, the “radiation-enhanced integration of linear plasmid (neomycin resistance)” value in data set [1] (Hela, 2 μg Dbait added to transfection mix, 4×0.5 Gy) was “abolished”. Moreover, the “cell death (cells in sub-G1 stage)” value in the data set with GMA32 cells is reported as “Significant cell death”. The “phosphorylation of p53 serine 15” value in data set [2] is given as “highly phosphorylated”.
As to “Dbait32ss: 32-nt single strand DNA (SEQ ID NO: 1) (DNA ACGCACGGGTGTTGGGTCGTTTGTTCGGATCT; DNA, backbone not given here)”, the “radiation-enhanced illegitimate integration of plasmid (puromycin resistance)” value in data set [1] is reported as “not effective”. For the same substance, the “cell death (cells in sub-G1 stage)” value with GMA32 cells is reported as “moderate”. Further, the “phosphorylation of p53 serine 15” value in data set [2] is listed as “Neither the shortest Dbait8H (SEQ ID NO: 4) nor single strand Dbaut32ss (SEQ ID NO: 1) molecules were able to induced significant phosphorylation”.
